# Results published in patent US20170080009A1, “Oligonucleotide Compositions and Methods for Treating Acute Lymphoblastic Leukemia” (priority 2014, published 2017).
# Read-outs that look alike come from different tables or passages of the source.
# Assays:
# [1] = Toxicology study in normal Balb/c mice (histopathology of bone marrow and GI tract)
# Method: Normal Balb/c mice were treated with identical dose, schedule and route of each drug as in the efficacy studies (i.e. Day 1, 3, 5 and 7). 72 hours after the last dose, animals were sacrificed, bilateral femoral cells harvested and organs fixed in 10% neutral buffered formalin followed by routine tissue processing and sectioning for hematoxylin and eosin staining. Slides were then reviewed by a veterinary pathologist using a Nikon Eclipse 50i light microscope. Photographs of tissues were taken using the NIS Elements D3.10 camera and software system.
# Animals were sacrificed 72 hours following their last dose. BM=bone marrow, LI=large intestine, SI=small intestine.
# The 5-FU dose was chosen as it delivers the exact same amount of fluoropyrimidine as the F10 dosed at 300 mg/kg. GI tract and bone marrow slides were analyzed by a veterinary pathologist blinded to treatment.
# [2] = test system: B6 ALL cells; experiment: Engraftment of treated B6 ALL cells in syngeneic C57Bl/6 mice; assay type: in vivo, mouse; settings: cells treated with 50 nM F10 for 24 hours prior to injection
# Description: B) Engraftment of human HSCs.
# [3] = test system: Molt-4 cells; experiment: Cell viability assay, Molt-4 cells; assay type: cell-based, human; settings: 72 hour exposure prior to viability
# [4] = test system: B6 ALL cells; experiment: Cell viability assay, B6 ALL cells; assay type: cell-based, mouse
# [5] = test system: Baf-3 cells expressing the T315I variant of BCR-ABL; experiment: Syngeneic Baf-3 BCR-ABL T315I model in Balb/c mice, survival; assay type: in vivo; settings: 300 mg/kg tail vein QOD x4 doses; p=0.0013
# Method: (§1) Committee approved all mouse experiments. […] Control animals were injected with PBS.
# [6] = test system: SUP-B15 ALL cells; experiment: Annexin V / PI apoptosis assay, SUP-B15 cells; assay type: cell-based, human
# Method: (§2) Cells were seeded in 6-well μ[…] in 3 mls, grown for 2 days and treated with the indicated drug. After centrifugation and washing in cold PBS cells were stained with PI (Sigma Aldrich, St. Louis, Mo.) and APC-conjugated Annexin V in a binding buffer (0.1 M Hepes (pH 7.4), 1.4 M NaCl, and 25 mM CaCl2 solution) (BD Pharmingen, San Jose, Calif.) according to the manufacturer's protocol. Flow cytometric analysis was conducted on a Accuri flow cytometer (BD Biosciences). […] FIG. 1 A) Flow cytometry of Annexin V assay. […] B) Quantitation of non-apoptotic cells.
# [7] = target: T1, TS (Homo sapiens, UniProt P04818); experiment: TS catalytic activity in treated Jurkat cells; assay type: cell-based
# T1 construct: Jurkat cells were exposed to 10 nM FdUMP[10] or 100 nM 5-FU for the indicated time, lysed and assayed for TS activity; endogenous in cells; host or cells: Jurkat
# T1 sequence (P04818 whole entry): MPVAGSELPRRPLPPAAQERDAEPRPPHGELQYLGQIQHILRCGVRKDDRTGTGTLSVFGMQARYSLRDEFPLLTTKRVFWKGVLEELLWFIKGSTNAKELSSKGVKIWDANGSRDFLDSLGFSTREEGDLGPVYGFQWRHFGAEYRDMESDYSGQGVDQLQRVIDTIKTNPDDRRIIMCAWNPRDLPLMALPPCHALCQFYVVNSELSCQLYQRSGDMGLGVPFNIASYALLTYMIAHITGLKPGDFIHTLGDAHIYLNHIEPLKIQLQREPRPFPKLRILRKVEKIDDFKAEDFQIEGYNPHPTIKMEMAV
# Method: Cells were plated at 1.5×10^6 cells in 100 mm2 plates and grown overnight in RPMI 1640 medium with 20% FBS. Cells were exposed to the indicated drug for 8, 16, 24, or 48 hours. Cells were then harvested in 25 mM Tris-HCl, pH 7.4 with Complete Protease Inhibitor Cocktail (Roche), put through 2 freeze/thaw cycles, and vortexed. The lysates were centrifuged at 10,000×g for 10 minutes at 4° C. TS assays were performed in a final volume of 200 μl containing 75 μM 5,10 methylene tetrahydrofolate in 0.5 M NaOH (Schircks Laboratories, Switzerland), 10 μM dUMP, 200,000 dpm of 3H-dUMP (Moravek Biochemicals), 100 μM 2-mercaptoethanol, and 25 mM KH2PO4, pH 7.4. Cell lysate (400 μg of protein) was added to the reaction buffer. Reactions were incubated at 37° C. for 30 minutes and stopped by addition of 100 μl of 20% TCA, incubated for 5 minutes on ice. 200 μL of activated charcoal solution (10 g activated charcoal, 0.25 g BSA, 0.25 g dextran sulfate, in 100 ml of water) was added, vortexed and maintained at room temperature for 10 minutes. Reactions were centrifuged at 10,000×g for 30 minutes. 200 μL aliquots of the supernatant were read by scintillation counting. All reactions were repeated a minimum of three times.
# (A) TS inhibition assay. Jurkat cells were exposed to 10 nM FdUMP[10] or 100 nM 5-FU for the indicated time, lysed and assayed for TS activity. Activity is plotted as percentage of control. […]
# [8] = test system: B6 ALL cells; experiment: Annexin V / PI apoptosis assay, B6 ALL cells; assay type: cell-based, mouse
# Method: as §2
# [9] = test system: DG75 cells; experiment: Cell viability assay, DG75 cells; assay type: cell-based, human; settings: 72 hour exposure prior to viability
# [10] = test system: CCRF-CEM cells; experiment: Cell viability assay, CCRF-CEM cells; assay type: cell-based, human; settings: 72 hour exposure prior to viability
# [11] = test system: panel of human and mouse ALL cell lines; settings: for IC50: 72 hours
# Method: (§3) All human cell lines were maintained in RPMI media (Gibco, Carlsbad, Calif.) supplemented with 10% FBS, penicillin and streptomycin. Cells were grown at 37° C. with 5% CO2. Viability assays were done using the Cell Titer-Glo assay (Promega, Madison, Wis.) according to the manufacturer's protocol or by Trypan blue exclusion assay using the Countess cell counting system (Invitrogen, Carlsbad, Calif.). All murine cells were maintained in stem cell media (40% DMEM, 40% IMDM, 20% FBS, supplemented with murine SCF to 10 ng/ml, murine IL6 to 2 ng/ml, and murine IL3 to 0.4 ng/ml).
# In order to assess the activity of F10 a panel of human and mouse ALL cell lines were exposed to a titration of F10, 5-FU, cytarabine or doxorubicin. After 72 hours viability was assessed and the IC50 values for each was determined.
# [12] = test system: Ara-C resistant B6 ALL cells; experiment: C57Bl/6 mice injected with Ara-C resistant B6 ALL cells, survival; assay type: in vivo; settings: control median 12 days
# Method: as §1
# A) Cell viability assays.
# [13] = test system: SUP-B15 tumors; experiment: SUP-B15 xenograft in nude mice; settings: 300 mg/kg tail vein QOD for 5 doses
# Method: (§4) Committee approved all mouse experiments. Luciferase-tagged leukemia cells were transplanted into 6- to 8-wk-old C57Bl/6 or Balb/c recipient mice by tail-vein injection of 1×10^6 viable cells. Mice were monitored by bioluminescent imaging on day 6. Imaging was performed using an IVIS100 imaging system (Caliper LifeSciences, Hopkinton, Mass.). Mice were injected with 150 mg/kg D-Luciferin (Gold Biotechnology, St. Louis, Mo.), anesthetized with isoflurane, and imaged for 2 min. For the xenograft studies 6-8-wk old nude mice were subcutaneously injected with 2×10^6 cells mixed with 200 μl matrigel (BD Bioscience). Chemotherapy was initiated upon detection of clear signals or reproducibly palpable flank tumors. Mice were treated with 300 mg/kg FdUMP[10] by tail vein injection. Control animals were injected with PBS. Repeat luciferase imaging or tumor volume measurements were performed following treatment.
# (§5) B) Survival of Balb/c mice injected with Baf-3 cells expressing the T315I variant of BCR-ABL treated with saline or F10 at 300 mg/kg QOD ×4 doses as indicated. […] D) Volumes of Jurkat tumors in nude mice treated with saline or F10 at 300 mg/kg QOD ×5 doses as indicated. […] F) Survival of all xenograft bearing mice from time of injection treated with saline or F10 at 300 mg/kg QOD ×5 doses as indicated. All p values were derived from log rank tests. […]
# [14] = test system: SUP-B15, Jurkat, and DG75 human ALL cell lines in xenograft models; experiment: All xenograft bearing mice (SUP-B15, Jurkat, DG75), survival and eradication; settings: 300 mg/kg QOD for 5 doses
# Method: as §4, §5
# [15] = mouse, in vivo
# [16] = test system: B6 ALL cells; experiment: Syngeneic B6 ALL model in C57Bl/6 mice, survival; settings: 300 mg/kg tail vein QOD
# Method: as §4
# B) Survival of Balb/c mice injected with Baf-3 cells expressing the T315I variant of BCR-ABL treated with saline or F10 at 300 mg/kg QOD ×4 doses as indicated. […] D) Volumes of Jurkat tumors in nude mice treated with saline or F10 at 300 mg/kg QOD ×5 doses as indicated. […] F) Survival of all xenograft bearing mice from time of injection treated with saline or F10 at 300 mg/kg QOD ×5 doses as indicated. All p values were derived from log rank tests.
# In this system Baf-3 cells were infected with an MSCV based virus that expressed the T315 variant of BCR-ABL seen in many cases of relapsed Philadelphia chromosome positive ALL^8. […] Nude mice were subcutaneously injected with 2×10^6 cells in matrigel and once a reproducibly palpable tumor was established were treated with F10 at 300 mg/kg or saline by tail vein injection QOD for 5 doses.
# [17] = test system: Jurkat cells, a human T cell ALL line; experiment: Sensitivity of Jurkat cells to F10; assay type: cell-based
# Description: One pathway that the inventors of the present invention believed could be exploited was the increased uptake of oligonucleotides by ALL cells. F10 is a poison deoxy-oligonucleotide that is a 10mer of the TS inhibitory 5-FU metabolite, 5-fluoro-2′-deoxyuridine-5′-O-monophosphate (FdUMP[10]) SEQ ID NO: 1. […] Activity of these targets is important for any replicating cell regardless of driving mutations. […] In this invention, the activity, toxicity and uptake of F10 in preclinical models of ALL was determined.
# [18] = test system: Jurkat tumors; experiment: Jurkat xenograft in nude mice; settings: 300 mg/kg tail vein QOD for 5 doses
# Method: as §4, §5
# [19] = test system: SUP-B15 cells; experiment: Cell viability assay, SUP-B15 cells; assay type: cell-based, human; settings: 72 hour exposure prior to viability
# [20] = test system: DG-75 tumors; experiment: DG75 xenograft in nude mice; settings: 300 mg/kg tail vein QOD for 5 doses
# Method: as §4, §5
# [21] = test system: Ara-C resistant B6 ALL cells; experiment: Cell viability assay, Ara-C resistant B6 ALL lines; settings: Mus musculus, 72 h, read-out: average IC50 of cytarabine, relapsed (resistant) cells
# Method: as §3
# When the mice were moribund bilateral femur cells from 4 separate animals were harvested and they were placed in culture.
# [22] = F10 300 mg/kg QOD x4, sacrificed 72 hours after last dose
# [23] = 72 hour exposure prior to viability, read-out: IC50 B6 ALL
# [24] = 5-FU 121 mg/kg QOD x4, sacrificed 72 hours after last dose
# [25] = Mus musculus, 72 hour exposure prior to viability, read-out: IC50 B6 ALL
molecule,measurement,setting,value
FdUMP[10] [F10],GI tract toxicity (histopathology),[1]; [22],only a mild increase in apoptotic cells
same,bone marrow toxicity (histopathology),[1]; [22],only minimal marrow toxicity
same,engraftment of B6 ALL cells (bioluminescence),[2],significantly reduced engraftment
same,IC50,[3],1.88 nM
same,IC50,[4]; [23],0.07 nM
same,survival vs saline,[5],significant prolongation of survival
same,induction of apoptosis (Annexin V and PI positive cells),"[6]; 1 nM F10, 72 hour exposure",robust induction of Annexin V and PI positive cells
same,TS inhibition (activity as percentage of control),"[7]; 10 nM F10, 8-48 hours",profound and prolonged TS inhibition
same,induction of apoptosis (Annexin V and PI positive cells),"[8]; 1 nM F10, 72 hour exposure",robust induction of Annexin V and PI positive cells
same,IC50,[9],4.12 nM
same,IC50,[10],1.14 nM
same,potency relative to 5-FU,[11],more than 1000 times
same,IC50,"[11]; read-out: average IC50 value for all cell lines, average over all cell lines",1.48 nM
same,IC50,"[11]; read-out: range of IC50 values over all cell lines, range over cell lines",0.07 to 5.4 nM
same,median survival,[12]; F10 300 mg/kg QOD,31 days
same,tumor volume response,[13],tumor regression
same,tumor eradication,[14]; in several cases,complete eradication of the tumor
same,survival of all xenograft bearing mice vs saline,[14]; p=0.0098,significant survival advantage
same,body weight of leukemic mice,[15],protected the mice from leukemia induced weight loss
same,median OS,"[16]; 4 treatments, control 15 days, p<0.0001",18 days
same,median OS,"[16]; 6 treatments, p=0.0009",24 days
same,median OS,"[16]; 9 treatments, p=0.0001",30 days
same,sensitivity of Jurkat cells,[17],low nanomolar sensitivity
same,tumor volume response,[18],tumor regression
same,IC50,[19],0.21 nM
same,tumor volume response,[20],tumor regression
"O=c1[nH]cc(F)c(=O)[nH]1 [5-FU, reference compound]",GI tract toxicity (histopathology),[1]; [24],abundant tissue damage and immune cell infiltration
same,bone marrow toxicity (histopathology),[1]; [24],pancytopenic and hemorrhagic marrow
same,IC50,[3],4960 nM
same,IC50,[4]; [23],799 nM
same,induction of apoptosis (non-apoptotic cells vs controls),"[6]; 100 nM 5-FU, 72 hours",not significantly different from controls
same,TS inhibition (activity as percentage of control),"[7]; 100 nM 5-FU, compared with 10 nM F10",could not be achieved by 5-FU
same,induction of apoptosis (non-apoptotic cells vs controls),"[8]; 100 nM 5-FU, 72 hours",not significantly different from controls
same,IC50,[9],14000 nM
same,IC50,[10],> 50000 nM
same,IC50,[19],425 nM
Nc1ccn([C@@H]2O[C@H](CO)[C@@H](O)[C@@H]2O)c(=O)n1 [Cytarabine],IC50,"[3]; Homo sapiens, MOLT-4",10.6 nM
same,IC50,[4]; [25],11.9 nM
same,IC50,"[4]; Mus musculus, parental B6 ALL, 72 hours, read-out: IC50 of cytarabine, parental cell line",11 nM
same,IC50,[21],23 nM
same,IC50,"[9]; Homo sapiens, DG-75",64.3 nM
same,IC50,"[10]; Homo sapiens, CCRF-CEM",8.32 nM
same,survival compared with control,[12]; cytarabine 100 mg/kg QOD,lived only a day longer
COc1cccc2c1C(=O)c1c(O)c3c(c(O)c1C2=O)C[C@@](O)(C(=O)CO)C[C@@H]3O[C@H]1C[C@H](N)[C@H](O)[C@H](C)O1 [Doxorubicin],IC50,"[3]; Homo sapiens, MOLT-4",19.5 nM
same,IC50,[4]; [25],4.84 nM
same,IC50,"[9]; Homo sapiens, DG-75",150 nM
same,IC50,"[10]; Homo sapiens, CCRF-CEM",36.3 nM
same,IC50,"[19]; Homo sapiens, SUP-B15",19.4 nM
